# System: not listed separately
# Assay: Cytotoxicity against mouse BAF3 cells assessed as cell proliferation after 72 hrs by CelltiterGlo assay
# Type: cell-based
# Details: not given
row,SMILES,GI50 at 72 h [nM]
1,Nc1ncnc2c1c(-c1ccc(Oc3ccccc3)cc1)nn2[C@@H]1CCCN(C(=O)[C@H](N)CO)C1,6500
2,CC(C)[C@@H](N)C(=O)N1CCC[C@@H](n2nc(-c3ccc(Oc4ccccc4)cc3)c3c(N)ncnc32)C1,1400
3,CC(O)[C@@H](N)C(=O)N1CCC[C@@H](n2nc(-c3ccc(Oc4ccccc4)cc3)c3c(N)ncnc32)C1 (some centres not stated),3900
4,CC(C)C[C@@H](N)C(=O)N1CCC(n2nc(-c3ccc(Oc4ccccc4)cc3)c3c(N)ncnc32)CC1,590
5,CC(C)(C)CC(=O)N1CCC[C@@H](n2nc(-c3ccc(Oc4ccccc4)cc3)c3c(N)ncnc32)C1,4600
6,CCC(=O)N1CCC[C@@H](n2nc(-c3ccc(Oc4ccccc4)cc3)c3c(N)ncnc32)C1,3800
7,NCC(=O)N1CCC[C@@H](n2nc(-c3ccc(Oc4ccccc4)cc3)c3c(N)ncnc32)C1,3800
8,CN1CCN(CC(=O)N2CCC[C@@H](n3nc(-c4ccc(Oc5ccccc5)cc4)c4c(N)ncnc43)C2)CC1,2300
9,CCS(=O)(=O)N1CCC[C@@H](n2nc(-c3ccc(Oc4ccccc4)cc3)c3c(N)ncnc32)C1,4000
10,Nc1ncnc2c1c(-c1ccc(Oc3ccccc3)cc1)nn2[C@@H]1CCCN(C(=O)C2CC2)C1,> 10000
11,CC[C@@H](C)[C@@H](N)C(=O)N1CCC[C@@H](n2nc(-c3ccc(Oc4ccccc4)cc3)c3c(N)ncnc32)C1,1700
12,C[C@@H](N)C(=O)N1CCC[C@@H](n2nc(-c3ccc(Oc4ccccc4)cc3)c3c(N)ncnc32)C1,3800
13,CCCC(=O)N1CCC[C@@H](n2nc(-c3ccc(Oc4ccccc4)cc3)c3c(N)ncnc32)C1,> 10000
14,Nc1ncnc2c1c(-c1ccc(Oc3ccccc3)cc1)nn2[C@@H]1CCCN(C(=O)CC2CC2)C1,3600
15,CN(C)CC(=O)N1CCC(n2nc(-c3ccc(Oc4ccccc4)cc3)c3c(N)ncnc32)CC1,3650
16,C=CC(=O)N1CCC[C@@H](n2nc(-c3ccc(Oc4ccccc4)cc3)c3c(N)ncnc32)C1 [IBRUTINIB],> 10000

row,SMILES,GI50 at 72 h [nM]
1,NCCC(=O)N1CCC[C@@H](n2nc(-c3ccc(Oc4ccccc4)cc3)c3c(N)ncnc32)C1,> 10000
2,CN1CCC(C(=O)N2CCC[C@@H](n3nc(-c4ccc(Oc5ccccc5)cc4)c4c(N)ncnc43)C2)CC1,5000
3,CCCS(=O)(=O)N1CCC[C@@H](n2nc(-c3ccc(Oc4ccccc4)cc3)c3c(N)ncnc32)C1,8600
4,CN(C)CC(=O)N1CC[C@@H](n2nc(-c3ccc(Oc4ccccc4)cc3)c3c(N)ncnc32)C1,8420
5,CS(=O)(=O)N1CC[C@@H](n2nc(-c3ccc(Oc4ccccc4)cc3)c3c(N)ncnc32)C1,> 10000
6,CS(=O)(=O)N1CCC[C@@H](n2nc(-c3ccc(Oc4ccccc4)cc3)c3c(N)ncnc32)C1,> 10000
7,CC(C)C[C@@H](N)C(=O)N1CC[C@@H](n2nc(-c3ccc(Oc4ccccc4)cc3)c3c(N)ncnc32)C1,2150
8,C=CC(=O)N1CCC[C@@H](n2nc(-c3ccc(/C=C/c4ccccc4)cc3)c3c(N)ncnc32)C1,> 10000
9,CS(=O)(=O)N1CCC(n2nc(-c3ccc(Oc4ccccc4)cc3)c3c(N)ncnc32)CC1,> 10000
10,CC(C)C[C@@H](N)C(=O)N1CCC[C@@H](n2nc(-c3ccc(Oc4ccccc4)cc3)c3c(N)ncnc32)C1,1300
11,NCC(=O)N1CC[C@@H](n2nc(-c3ccc(Oc4ccccc4)cc3)c3c(N)ncnc32)C1,7590
12,CC(=O)N1CCC[C@@H](n2nc(-c3ccc(Oc4ccccc4)cc3)c3c(N)ncnc32)C1,5500
13,CN(C)CC(=O)N1CCC[C@H](n2nc(-c3ccc(Oc4ccccc4)cc3)c3c(N)ncnc32)C1,5800
14,CC(C)(C)C(=O)N1CCC[C@@H](n2nc(-c3ccc(Oc4ccccc4)cc3)c3c(N)ncnc32)C1,> 10000
15,CCC(C)(C)C(=O)N1CCC[C@@H](n2nc(-c3ccc(Oc4ccccc4)cc3)c3c(N)ncnc32)C1,4500

# System: MV4-11
# Assay: Antiproliferative activity against human MV4-11 cells after 72 hrs by CelltiterGlo assay
# Type: functional
# Details: MV4-11, 72 h
row,SMILES,GI50 [nM]
1,Nc1ncnc2c1c(-c1ccc(Oc3ccccc3)cc1)nn2[C@@H]1CCCN(C(=O)[C@H](N)CO)C1,61
2,CC(C)[C@@H](N)C(=O)N1CCC[C@@H](n2nc(-c3ccc(Oc4ccccc4)cc3)c3c(N)ncnc32)C1,27
3,CC(O)[C@@H](N)C(=O)N1CCC[C@@H](n2nc(-c3ccc(Oc4ccccc4)cc3)c3c(N)ncnc32)C1 (some centres not stated),64
4,CC(C)C[C@@H](N)C(=O)N1CCC(n2nc(-c3ccc(Oc4ccccc4)cc3)c3c(N)ncnc32)CC1,210
5,CC(C)(C)CC(=O)N1CCC[C@@H](n2nc(-c3ccc(Oc4ccccc4)cc3)c3c(N)ncnc32)C1,2400
6,CCC(=O)N1CCC[C@@H](n2nc(-c3ccc(Oc4ccccc4)cc3)c3c(N)ncnc32)C1,130
7,NCC(=O)N1CCC[C@@H](n2nc(-c3ccc(Oc4ccccc4)cc3)c3c(N)ncnc32)C1,22
8,CN1CCN(CC(=O)N2CCC[C@@H](n3nc(-c4ccc(Oc5ccccc5)cc4)c4c(N)ncnc43)C2)CC1,230
9,CCS(=O)(=O)N1CCC[C@@H](n2nc(-c3ccc(Oc4ccccc4)cc3)c3c(N)ncnc32)C1,570
10,Nc1ncnc2c1c(-c1ccc(Oc3ccccc3)cc1)nn2[C@@H]1CCCN(C(=O)C2CC2)C1,6500
11,CC[C@@H](C)[C@@H](N)C(=O)N1CCC[C@@H](n2nc(-c3ccc(Oc4ccccc4)cc3)c3c(N)ncnc32)C1,120
12,C[C@@H](N)C(=O)N1CCC[C@@H](n2nc(-c3ccc(Oc4ccccc4)cc3)c3c(N)ncnc32)C1,54
13,CCCC(=O)N1CCC[C@@H](n2nc(-c3ccc(Oc4ccccc4)cc3)c3c(N)ncnc32)C1,1200
14,Nc1ncnc2c1c(-c1ccc(Oc3ccccc3)cc1)nn2[C@@H]1CCCN(C(=O)CC2CC2)C1,410
15,CN(C)CC(=O)N1CCC(n2nc(-c3ccc(Oc4ccccc4)cc3)c3c(N)ncnc32)CC1,110
16,NCCC(=O)N1CCC[C@@H](n2nc(-c3ccc(Oc4ccccc4)cc3)c3c(N)ncnc32)C1,750
17,CN1CCC(C(=O)N2CCC[C@@H](n3nc(-c4ccc(Oc5ccccc5)cc4)c4c(N)ncnc43)C2)CC1,160
18,CCCS(=O)(=O)N1CCC[C@@H](n2nc(-c3ccc(Oc4ccccc4)cc3)c3c(N)ncnc32)C1,760
19,CN(C)CC(=O)N1CC[C@@H](n2nc(-c3ccc(Oc4ccccc4)cc3)c3c(N)ncnc32)C1,83
20,CS(=O)(=O)N1CC[C@@H](n2nc(-c3ccc(Oc4ccccc4)cc3)c3c(N)ncnc32)C1,420
21,CS(=O)(=O)N1CCC[C@@H](n2nc(-c3ccc(Oc4ccccc4)cc3)c3c(N)ncnc32)C1,170
22,CC(C)C[C@@H](N)C(=O)N1CC[C@@H](n2nc(-c3ccc(Oc4ccccc4)cc3)c3c(N)ncnc32)C1,120
23,C=CC(=O)N1CCC[C@@H](n2nc(-c3ccc(/C=C/c4ccccc4)cc3)c3c(N)ncnc32)C1,> 10000
24,CS(=O)(=O)N1CCC(n2nc(-c3ccc(Oc4ccccc4)cc3)c3c(N)ncnc32)CC1,630
25,CC(C)C[C@@H](N)C(=O)N1CCC[C@@H](n2nc(-c3ccc(Oc4ccccc4)cc3)c3c(N)ncnc32)C1,32
26,NCC(=O)N1CC[C@@H](n2nc(-c3ccc(Oc4ccccc4)cc3)c3c(N)ncnc32)C1,180
27,CC(=O)N1CCC[C@@H](n2nc(-c3ccc(Oc4ccccc4)cc3)c3c(N)ncnc32)C1,350
28,CN(C)CC(=O)N1CCC[C@H](n2nc(-c3ccc(Oc4ccccc4)cc3)c3c(N)ncnc32)C1,280
29,CC(C)(C)C(=O)N1CCC[C@@H](n2nc(-c3ccc(Oc4ccccc4)cc3)c3c(N)ncnc32)C1,> 10000
30,CCC(C)(C)C(=O)N1CCC[C@@H](n2nc(-c3ccc(Oc4ccccc4)cc3)c3c(N)ncnc32)C1,2400

# System: Receptor-type tyrosine-protein kinase FLT3 (Homo sapiens), P36888 [UNDEFINED MUTATION]
# Assay: Inhibition of FLT3 ITD mutant (unknown origin) expressed in BaF3 cells assessed as inhibition of cell proliferation after 72 hrs by CelltiterGlo assay
# Type: cell-based
# Details: not given
# Sequence of Receptor-type tyrosine-protein kinase FLT3 (Homo sapiens), P36888 [UNDEFINED MUTATION] (P36888 whole entry, looked up, change not shown): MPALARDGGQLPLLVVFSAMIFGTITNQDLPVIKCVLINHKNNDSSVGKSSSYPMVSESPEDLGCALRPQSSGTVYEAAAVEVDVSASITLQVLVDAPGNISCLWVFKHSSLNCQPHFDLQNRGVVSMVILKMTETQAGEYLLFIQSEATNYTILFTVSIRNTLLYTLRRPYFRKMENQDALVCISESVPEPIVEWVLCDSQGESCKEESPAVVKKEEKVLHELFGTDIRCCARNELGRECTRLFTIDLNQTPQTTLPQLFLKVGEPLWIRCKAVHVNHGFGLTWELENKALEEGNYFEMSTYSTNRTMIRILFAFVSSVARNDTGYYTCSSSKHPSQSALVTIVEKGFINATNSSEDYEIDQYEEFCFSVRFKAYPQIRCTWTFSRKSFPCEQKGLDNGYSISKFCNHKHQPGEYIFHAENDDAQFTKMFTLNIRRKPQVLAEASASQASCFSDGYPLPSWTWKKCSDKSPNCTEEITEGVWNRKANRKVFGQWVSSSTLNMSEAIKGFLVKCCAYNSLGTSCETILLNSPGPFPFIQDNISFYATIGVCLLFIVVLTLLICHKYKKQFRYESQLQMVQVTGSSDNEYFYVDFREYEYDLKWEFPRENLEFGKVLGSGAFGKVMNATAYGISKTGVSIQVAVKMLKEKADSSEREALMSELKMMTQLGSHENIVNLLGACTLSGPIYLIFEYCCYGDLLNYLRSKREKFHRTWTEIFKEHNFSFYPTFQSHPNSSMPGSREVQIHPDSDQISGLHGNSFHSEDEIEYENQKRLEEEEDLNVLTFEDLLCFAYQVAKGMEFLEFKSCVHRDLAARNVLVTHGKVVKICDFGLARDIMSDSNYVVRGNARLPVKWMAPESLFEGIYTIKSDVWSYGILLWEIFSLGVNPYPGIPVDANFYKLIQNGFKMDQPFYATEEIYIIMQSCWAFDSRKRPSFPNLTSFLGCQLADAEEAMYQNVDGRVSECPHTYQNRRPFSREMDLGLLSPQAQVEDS
row,SMILES,GI50 [nM]
1,Nc1ncnc2c1c(-c1ccc(Oc3ccccc3)cc1)nn2[C@@H]1CCCN(C(=O)[C@H](N)CO)C1,46
2,CC(C)[C@@H](N)C(=O)N1CCC[C@@H](n2nc(-c3ccc(Oc4ccccc4)cc3)c3c(N)ncnc32)C1,17
3,CC(O)[C@@H](N)C(=O)N1CCC[C@@H](n2nc(-c3ccc(Oc4ccccc4)cc3)c3c(N)ncnc32)C1 (some centres not stated),22
4,CC(C)C[C@@H](N)C(=O)N1CCC(n2nc(-c3ccc(Oc4ccccc4)cc3)c3c(N)ncnc32)CC1,75
5,CC(C)(C)CC(=O)N1CCC[C@@H](n2nc(-c3ccc(Oc4ccccc4)cc3)c3c(N)ncnc32)C1,460
6,CCC(=O)N1CCC[C@@H](n2nc(-c3ccc(Oc4ccccc4)cc3)c3c(N)ncnc32)C1,28
7,NCC(=O)N1CCC[C@@H](n2nc(-c3ccc(Oc4ccccc4)cc3)c3c(N)ncnc32)C1,7
8,CN1CCN(CC(=O)N2CCC[C@@H](n3nc(-c4ccc(Oc5ccccc5)cc4)c4c(N)ncnc43)C2)CC1,93
9,CCS(=O)(=O)N1CCC[C@@H](n2nc(-c3ccc(Oc4ccccc4)cc3)c3c(N)ncnc32)C1,140
10,Nc1ncnc2c1c(-c1ccc(Oc3ccccc3)cc1)nn2[C@@H]1CCCN(C(=O)C2CC2)C1,1400
11,CC[C@@H](C)[C@@H](N)C(=O)N1CCC[C@@H](n2nc(-c3ccc(Oc4ccccc4)cc3)c3c(N)ncnc32)C1,88
12,C[C@@H](N)C(=O)N1CCC[C@@H](n2nc(-c3ccc(Oc4ccccc4)cc3)c3c(N)ncnc32)C1,22
13,CCCC(=O)N1CCC[C@@H](n2nc(-c3ccc(Oc4ccccc4)cc3)c3c(N)ncnc32)C1,450
14,Nc1ncnc2c1c(-c1ccc(Oc3ccccc3)cc1)nn2[C@@H]1CCCN(C(=O)CC2CC2)C1,82
15,CN(C)CC(=O)N1CCC(n2nc(-c3ccc(Oc4ccccc4)cc3)c3c(N)ncnc32)CC1,75
16,C=CC(=O)N1CCC[C@@H](n2nc(-c3ccc(Oc4ccccc4)cc3)c3c(N)ncnc32)C1 [IBRUTINIB],120

row,SMILES,GI50 [nM]
1,NCCC(=O)N1CCC[C@@H](n2nc(-c3ccc(Oc4ccccc4)cc3)c3c(N)ncnc32)C1,390
2,CN1CCC(C(=O)N2CCC[C@@H](n3nc(-c4ccc(Oc5ccccc5)cc4)c4c(N)ncnc43)C2)CC1,77
3,CCCS(=O)(=O)N1CCC[C@@H](n2nc(-c3ccc(Oc4ccccc4)cc3)c3c(N)ncnc32)C1,160
4,CN(C)CC(=O)N1CC[C@@H](n2nc(-c3ccc(Oc4ccccc4)cc3)c3c(N)ncnc32)C1,41
5,CS(=O)(=O)N1CC[C@@H](n2nc(-c3ccc(Oc4ccccc4)cc3)c3c(N)ncnc32)C1,130
6,CS(=O)(=O)N1CCC[C@@H](n2nc(-c3ccc(Oc4ccccc4)cc3)c3c(N)ncnc32)C1,48
7,CC(C)C[C@@H](N)C(=O)N1CC[C@@H](n2nc(-c3ccc(Oc4ccccc4)cc3)c3c(N)ncnc32)C1,41
8,C=CC(=O)N1CCC[C@@H](n2nc(-c3ccc(/C=C/c4ccccc4)cc3)c3c(N)ncnc32)C1,1800
9,CS(=O)(=O)N1CCC(n2nc(-c3ccc(Oc4ccccc4)cc3)c3c(N)ncnc32)CC1,190
10,CC(C)C[C@@H](N)C(=O)N1CCC[C@@H](n2nc(-c3ccc(Oc4ccccc4)cc3)c3c(N)ncnc32)C1,5
11,NCC(=O)N1CC[C@@H](n2nc(-c3ccc(Oc4ccccc4)cc3)c3c(N)ncnc32)C1,80
12,CC(=O)N1CCC[C@@H](n2nc(-c3ccc(Oc4ccccc4)cc3)c3c(N)ncnc32)C1,70
13,CN(C)CC(=O)N1CCC[C@H](n2nc(-c3ccc(Oc4ccccc4)cc3)c3c(N)ncnc32)C1,120
14,CC(C)(C)C(=O)N1CCC[C@@H](n2nc(-c3ccc(Oc4ccccc4)cc3)c3c(N)ncnc32)C1,1800
15,CCC(C)(C)C(=O)N1CCC[C@@H](n2nc(-c3ccc(Oc4ccccc4)cc3)c3c(N)ncnc32)C1,260

# From ChEMBL document CHEMBL3745617 (J Med Chem, 2015)
